What was measured:
[1] = target: T1, Recombinant human TDO comprising amino acids 19-407 (Homo sapiens, UniProt P48775); experiment: TDO2 enzymatic assay (NFK quantified by LCMS); assay type: biochemical; settings: 15 nM enzyme, 200 μM L-tryptophan, 30 min pre-incubation, pH7; mean if measured multiple times; read-out: hTDO activity (IC50 in nM)
T1 construct: human TDO comprising amino acids 19-407; hexahistidine (N); made in house; host or cells: E. coli
Summary of the method: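 E. coli-expressed N-terminal His-tagged TDO (15 nM) in pH 7 phosphate buffer with ascorbate and catalase, preincubated 30 min at RT with compound (10 μM to 0.5 nM, 0.6% DMSO). Reaction started with 200 μM L-tryptophan for 30 min at RT; NFK measured by LCMS against deuterated internal standard, IC50 by four-parameter fit, duplicates.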

[2] = target: T2, Recombinant full-length human IDO1 (Homo sapiens, UniProt P14902); experiment: IDO1 enzymatic assay (NFK quantified by LCMS); assay type: biochemical; settings: 2 nM enzyme, 5 μM L-tryptophan, 30 min pre-incubation, pH6.5; mean if measured multiple times; read-out: hIDO activity (IC50 in nM)
T2 construct: Recombinant full-length human IDO1 with a N-terminal hexahistidine tag; hexahistidine (N); made in house; host or cells: E. coli
Summary of the method: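 His-tagged full-length IDO1 (E. coli, 2 nM final) in pH 6.5 phosphate with ascorbate, methylene blue and catalase was preincubated 30 min at RT with compound (10 µM–0.5 nM, 0.6% DMSO), then run 30 min at RT with 5 µM L-Trp. NFK was measured by LCMS against a d5-Trp standard. IC50 came from a four-parameter fit of duplicates.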

IDO1 in SKOV3 cells = target: T3, IDO1 in SKOV3 cells (Homo sapiens, UniProt P14902); experiment: Cell-based IDO inhibitory activity in IFNγ-stimulated SKOV3 cells (NFK + kynurenine by LCMS); settings: IFNγ 50 ng/ml, 200 uM L-tryptophan, 24 hours
T3 construct: SKOV3 cells (NCI, No. 0503405) which upregulate IDO1 after stimulation with IFNγ; host or cells: SKOV3 cells stimulated with IFNγ
Summary of the method: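 SKOV3 cells (4000/well, pre-cultured 24 h) were treated with compound (10 uM-40 nM) plus 200 uM L-tryptophan and 50 ng/ml IFNγ for 24 h at 37° C. N-formylkynurenine plus kynurenine in supernatant was measured by LCMS against a d5-tryptophan internal standard. IC50 was fitted against 0.2% DMSO and reference-inhibitor controls, in duplicate, with repeat measurements averaged.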

T1 sequence (P48775 19-406 limits assumed): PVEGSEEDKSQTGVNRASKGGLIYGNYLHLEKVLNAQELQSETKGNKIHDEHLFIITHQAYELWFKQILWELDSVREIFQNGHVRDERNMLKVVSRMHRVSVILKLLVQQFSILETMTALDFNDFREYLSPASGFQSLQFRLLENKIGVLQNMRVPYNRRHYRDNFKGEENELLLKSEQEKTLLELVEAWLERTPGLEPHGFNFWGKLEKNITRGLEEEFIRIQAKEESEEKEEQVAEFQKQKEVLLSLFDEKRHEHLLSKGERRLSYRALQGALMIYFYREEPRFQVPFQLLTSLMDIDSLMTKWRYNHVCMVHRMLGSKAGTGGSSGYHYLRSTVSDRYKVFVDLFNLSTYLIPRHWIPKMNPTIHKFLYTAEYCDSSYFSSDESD
T3 sequence (P14902 whole entry): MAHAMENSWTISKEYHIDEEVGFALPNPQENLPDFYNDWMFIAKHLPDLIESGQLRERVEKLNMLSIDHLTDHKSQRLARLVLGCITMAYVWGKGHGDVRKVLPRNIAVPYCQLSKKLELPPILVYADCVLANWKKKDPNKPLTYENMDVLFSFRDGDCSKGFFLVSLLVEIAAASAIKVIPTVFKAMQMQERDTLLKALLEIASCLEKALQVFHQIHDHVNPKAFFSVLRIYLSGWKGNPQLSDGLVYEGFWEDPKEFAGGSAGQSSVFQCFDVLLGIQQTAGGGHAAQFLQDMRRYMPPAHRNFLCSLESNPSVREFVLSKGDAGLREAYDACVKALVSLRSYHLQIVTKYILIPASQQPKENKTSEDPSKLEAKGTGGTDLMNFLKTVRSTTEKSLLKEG
T2 sequence (P14902 whole entry): as above

| IC50 [1] [nM] | IC50 [2] [nM] | IC50 (IDO1 in SKOV3 cells) [nM] | Structure (SMILES) |
| --- | --- | --- | --- |
| > 10200 | 4.29 | 84.9 | Cc1ccc2cncn2c1[C@@H](O)c1cn(-c2ccccc2)nn1 [Example 2a, (R)-(6-Methyl-imidazo[1,5-a]pyridin-5-yl)-(1-phenyl-1H-[1,2,3]triazol-4-yl)-methanol] |
| > 10200 | 16.7 | 282 | O[C@@H](c1cn(-c2ccccc2)nn1)c1c(C2CC2)ncc2cncn12 [Example 3a, (R)-(6-Cyclopropyl-imidazo[1,5-a]pyrazin-5-yl)-(1-phenyl-1H-[1,2,3]triazol-4-yl)-methanol] |
| > 10200 | 361 | 703 | Oc1ccc(-n2cc([C@@H](O)c3c(C4CC4)ccc4cncn34)nn2)cc1Cl [Example 7b, 2-Chloro-4-{4-[(S)-(6-cyclopropyl-imidazo[1,5-a]pyridin-5-yl)-hydroxy-methyl]-[1,2,3]triazol-1-yl}-phenol] |
| > 10200 | 9.85 | 18.9 | COc1ccc(-n2cc([C@H](O)c3c(C4CC4)ccc4cncn34)nn2)cc1Cl [Example 8a, (R)-[1-(3-Chloro-4-methoxy-phenyl)-1H-[1,2,3]triazol-4-yl]-(6-cyclopropyl-imidazo[1,5-a]pyridin-5-yl)-methanol] |
| > 10200 | 2.93 | 12.5 | Oc1ccc(-n2cc([C@H](O)c3c(C4CC4)ncc4cncn34)nn2)cc1Cl [Example 10a, 2-Chloro-4-{4-[(R)-(6-cyclopropyl-imidazo[1,5-a]pyrazin-5-yl)-hydroxy-methyl]-[1,2,3]triazol-1-yl}-phenol] |
| > 10200 | 8.17 | 23.7 | COc1ccc(-n2cc([C@H](O)c3c(C4CC4)ncc4cncn34)nn2)cc1Cl [Example 11a, (R)-[1-(3-Chloro-4-methoxy-phenyl)-1H-[1,2,3]triazol-4-yl]-(6-cyclopropyl-imidazo[1,5-a]pyrazin-5-yl)-methanol] |
| 2190 | 1.84 | 10.7 | COc1ccc(-n2nnc([C@H](O)c3c(Cl)ccc4cncn34)c2C)cc1 [Example 20a, (R)-(6-Chloro-imidazo[1,5-a]pyridin-5-yl)-[1-(4-methoxy-phenyl)-5-methyl-1H-[1,2,3]triazol-4-yl]-methanol] |
| > 10200 | 8.24 | 33.2 | COc1ccc(-n2cc([C@H](O)c3c(C4CC4)ncc4cncn34)nn2)cc1F [Example 21, (R)-(6-Cyclopropyl-imidazo[1,5-a]pyrazin-5-yl)-[1-(3-fluoro-4-methoxy-phenyl)-1H-[1,2,3]triazol-4-yl]-methanol] |
| > 10200 | 6.36 | 20.2 | COc1cc(F)c(-n2cc([C@H](O)c3c(C4CC4)ncc4cncn34)nn2)cc1F [Example 22, (R)-(6-Cyclopropyl-imidazo[1,5-a]pyrazin-5-yl)-[1-(2,5-difluoro-4-methoxy-phenyl)-1H-[1,2,3]triazol-4-yl]-methanol] |
| > 10200 | 8.36 | 399 | COCc1ccc(-n2cc([C@H](O)c3c(C4CC4)ncc4cncn34)nn2)cc1 [Example 24, (R)-(6-Cyclopropyl-imidazo[1,5-a]pyrazin-5-yl)-[1-(4-methoxymethyl-phenyl)-1H-[1,2,3]triazol-4-yl]-methanol] |
| > 10200 | 5.86 | 33 | COc1cc(F)c(-n2cc([C@H](O)c3c(C4CC4)ncc4cncn34)nn2)cc1Cl [Example 25, (R)-[1-(5-Chloro-2-fluoro-4-methoxy-phenyl)-1H-[1,2,3]triazol-4-yl]-(6-cyclopropyl-imidazo[1,5-a]pyrazin-5-yl)-methanol] |
| > 10200 | 4.5 | 74.3 | COc1c(F)cc(-n2cc([C@H](O)c3c(C4CC4)ncc4cncn34)nn2)cc1Cl [Example 26, (R)-[1-(3-Chloro-5-fluoro-4-methoxy-phenyl)-1H-[1,2,3]triazol-4-yl]-(6-cyclopropyl-imidazo[1,5-a]pyrazin-5-yl)-methanol] |
| > 10200 | 5.6 | 47.4 | Oc1ccc(-n2cc([C@H](O)c3c(C4CC4)ncc4cncn34)nn2)cc1F [Example 27, 4-{4-[(R)-(6-Cyclopropyl-imidazo[1,5-a]pyrazin-5-yl)-hydroxy-methyl]-[1,2,3]triazol-1-yl}-2-fluoro-phenol] |
| > 10200 | 6.28 | 19.5 | O[C@@H](c1cn(-c2ccc(OCC3(F)COC3)c(F)c2)nn1)c1c(C2CC2)ncc2cncn12 [Example 28, (R)-(6-Cyclopropyl-imidazo[1,5-a]pyrazin-5-yl)-{1-[3-fluoro-4-(3-fluoro-oxetan-3-ylmethoxy)-phenyl]-1H-[1,2,3]triazol-4-yl}-methanol] |
| > 10200 | 7.74 | 29.9 | CC(C)(O)COc1ccc(-n2cc([C@H](O)c3c(C4CC4)ncc4cncn34)nn2)cc1F [Example 29, 1-(4-{4-[(R)-(6-Cyclopropyl-imidazo[1,5-a]pyrazin-5-yl)-hydroxy-methyl]-[1,2,3]triazol-1-yl}-2-fluoro-phenoxy)-2-methyl-propan-2-ol] |
| 8600 | 3.68 | 52.4 | COc1ccc(-n2cc([C@H](O)c3c(Cl)ccc4cncn34)nn2)cc1 [Example 30, (R)-(6-Chloro-imidazo[1,5-a]pyridin-5-yl)-[1-(4-methoxy-phenyl)-1H-[1,2,3]triazol-4-yl]-methanol] |
| > 10200 | 1.13 | 9.2 | COc1cc(F)c(-n2cc([C@H](O)c3c(Cl)ccc4cncn34)nn2)cc1F [Example 31, (R)-(6-Chloro-imidazo[1,5-a]pyridin-5-yl)-[1-(2,5-difluoro-4-methoxy-phenyl)-1H-[1,2,3]triazol-4-yl]-methanol] |
| > 10200 | 5.33 | 127 | COc1ccc(-n2cc([C@H](O)c3c(C4CC4)ncc4cncn34)nn2)c(F)c1Cl [Example 33, (R)-[1-(3-Chloro-2-fluoro-4-methoxy-phenyl)-1H-[1,2,3]triazol-4-yl]-(6-cyclopropyl-imidazo[1,5-a]pyrazin-5-yl)-methanol] |
| > 10200 | 1.82 | 7.92 | CCc1ccc2cncn2c1[C@@H](O)c1cn(-c2ccc(OC)cc2)nn1 [Example 34a, (R)-(6-Ethyl-imidazo[1,5-a]pyridin-5-yl)-[1-(4-methoxy-phenyl)-1H-[1,2,3]triazol-4-yl]-methanol] |
| > 10200 | 2.39 | 0.95 | CCc1ccc2cncn2c1[C@@H](O)c1cn(-c2cc(F)c(OC)cc2F)nn1 [Example 35a, (R)-[1-(2,5-Difluoro-4-methoxy-phenyl)-1H-[1,2,3]triazol-4-yl]-(6-ethyl-imidazo[1,5-a]pyridin-5-yl)-methanol] |
| > 10200 | 8.33 | 16.8 | O[C@@H](c1cn(-c2ccc(OCC3COC3)c(F)c2)nn1)c1c(C2CC2)ncc2cncn12 [Example 36, (R)-(6-Cyclopropyl-imidazo[1,5-a]pyrazin-5-yl)-{1-[3-fluoro-4-(oxetan-3-ylmethoxy)-phenyl]-1H-[1,2,3]triazol-4-yl}-methanol] |
| > 10200 | 16.5 | 154 | O[C@@H](c1cn(-c2ccc(N3CCCC3)cc2)nn1)c1c(C2CC2)ncc2cncn12 [Example 40, (R)-(6-Cyclopropyl-imidazo[1,5-a]pyrazin-5-yl)-[1-(4-pyrrolidin-1-yl-phenyl)-1H-[1,2,3]triazol-4-yl]-methanol] |
| > 10200 | 17.5 | 212 | Nc1ccc(-n2cc([C@H](O)c3c(C4CC4)ncc4cncn34)nn2)cc1 [Example 41, (R)-[1-(4-Amino-phenyl)-1H-[1,2,3]triazol-4-yl]-(6-cyclopropyl-imidazo[1,5-a]pyrazin-5-yl)-methanol] |
| > 10200 | 13.5 | 199 | CNc1ccc(-n2cc([C@H](O)c3c(C4CC4)ncc4cncn34)nn2)cc1 [Example 42, (R)-(6-Cyclopropyl-imidazo[1,5-a]pyrazin-5-yl)-[1-(4-methylamino-phenyl)-1H-[1,2,3]triazol-4-yl]-methanol] |
| > 10200 | 14.5 | 377 | CN(C)c1ccc(-n2cc([C@H](O)c3c(C4CC4)ncc4cncn34)nn2)cc1 [Example 44, (R)-(6-Cyclopropyl-imidazo[1,5-a]pyrazin-5-yl)-[1-(4-dimethylamino-phenyl)-1H-[1,2,3]triazol-4-yl]-methanol] |

Reference: patent publication US20220259212A1, “INHIBITORS OF INDOLEAMINE 2,3-DIOXYGENASE AND/OR TRYPTOPHAN 2,3-DIOXYGENASE” (Idorsia Pharmaceuticals Ltd, priority 2019, published 2022)
